Assay results published in patent US20130102009A1, “SIRTUIN ACTIVATORS AND ACTIVATION ASSAYS” (priority 2010, published 2013).
Where a name gives a salt, the structure may show the parent alone.

Columns and labels:
[1] = target: T1, SIRT1(183-664) (Homo sapiens, UniProt Q96EB6); experiment: Fluorescence binding experiment with SIRT1(183-664); details: excitation 315 nm, emission 450 nm; read-out: Kx (μM), Fluorescence
T1 construct: the truncated version used for biophysical studies SIRT1(183-664); made in house
T1 sequence (Q96EB6 183-664): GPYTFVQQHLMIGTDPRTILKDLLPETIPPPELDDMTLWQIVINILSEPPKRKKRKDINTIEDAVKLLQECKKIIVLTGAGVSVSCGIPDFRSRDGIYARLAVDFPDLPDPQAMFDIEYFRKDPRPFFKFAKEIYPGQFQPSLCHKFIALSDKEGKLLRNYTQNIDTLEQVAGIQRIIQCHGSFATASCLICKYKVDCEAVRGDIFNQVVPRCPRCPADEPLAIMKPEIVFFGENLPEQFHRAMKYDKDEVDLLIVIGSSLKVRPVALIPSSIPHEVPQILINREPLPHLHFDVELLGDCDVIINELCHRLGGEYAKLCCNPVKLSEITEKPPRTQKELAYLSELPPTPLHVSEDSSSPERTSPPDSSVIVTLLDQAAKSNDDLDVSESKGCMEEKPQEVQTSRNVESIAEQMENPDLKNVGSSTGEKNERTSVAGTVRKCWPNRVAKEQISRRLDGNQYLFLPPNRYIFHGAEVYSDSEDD
Description: All peptides were prepared by BioPeptide (San Diego, Calif.) and shown to be at least 95% pure by analytical HPLC analysis. Bovine glutamate dehydrogenase (GDH), α-ketoglutarate, NADH and NAD^+ were from Sigma Chemical Company. Full-length, human SIRT1 and the truncated version used for biophysical studies SIRT1(183-664) were prepared as described previously, and shown to have equivalent kinetic properties (Milne et al. (2007) Nature 450, 712-716). The nicotinamidase PNC1 was prepared as described by Denu and colleagues (Smith et al. (2009) Anal Biochem 394, 101-109).
SIRT1(183-664) was dialyzed against a buffer composed of 137 mM NaCl, 2.7 mM KCl, 1 mM MgCl2, 2 mM TCEP, 5% (v/v) glycerol and 50 mM HEPES-NaOH, pH 7.3. 14 was dissolved in the final dialysis buffer and its pH values were adjusted to match that of the protein solution. The fluorescence emission spectra of 14 in the absence or presence of different concentrations of enzyme was monitored on the SpectraMax M5 with excitation at 315 nm. The fluorescence intensity change at 450 nm was plotted against the concentration of SIRT1(183-664) and fitted using a standard binding equation.

[2] = target: T2, SIRT1 (Homo sapiens, UniProt Q96EB6); experiment: Continuous PNC1-GDH-coupled assay of SIRT1-catalyzed deacetylation of Ac-Arg-His-Lys-Lys^Ac-X with STACs; format: biochemical; details: for Relative Velocity, X=Ala-NH2: Ac-Arg-His-Lys-Lys^Ac-Ala-NH2; for Relative Velocity, X=NH2: Ac-Arg-His-Lys-Lys^Ac-NH2
T2 sequence (Q96EB6 1-747): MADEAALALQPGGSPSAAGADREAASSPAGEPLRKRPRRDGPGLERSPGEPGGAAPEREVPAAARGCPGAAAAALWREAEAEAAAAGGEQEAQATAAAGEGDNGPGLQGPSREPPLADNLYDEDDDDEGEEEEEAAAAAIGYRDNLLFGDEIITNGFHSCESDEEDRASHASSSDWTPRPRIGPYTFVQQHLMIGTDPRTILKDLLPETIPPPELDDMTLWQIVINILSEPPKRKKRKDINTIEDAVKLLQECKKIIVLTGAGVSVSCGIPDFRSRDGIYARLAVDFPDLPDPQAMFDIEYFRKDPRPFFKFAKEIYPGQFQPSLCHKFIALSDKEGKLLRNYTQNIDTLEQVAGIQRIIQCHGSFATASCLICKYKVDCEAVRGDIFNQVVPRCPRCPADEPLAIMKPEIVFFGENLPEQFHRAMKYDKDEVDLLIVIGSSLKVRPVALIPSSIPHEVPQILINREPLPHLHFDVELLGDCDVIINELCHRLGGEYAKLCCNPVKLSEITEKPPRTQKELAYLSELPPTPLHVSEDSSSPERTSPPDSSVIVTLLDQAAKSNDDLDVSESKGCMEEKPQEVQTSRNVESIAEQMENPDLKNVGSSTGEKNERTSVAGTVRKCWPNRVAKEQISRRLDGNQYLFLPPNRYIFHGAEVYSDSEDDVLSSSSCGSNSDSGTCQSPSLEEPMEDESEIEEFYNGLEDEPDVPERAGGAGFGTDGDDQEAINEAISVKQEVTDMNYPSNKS
Description: Bovine glutamate dehydrogenase (GDH), α-ketoglutarate, NADH and NAD^+ were from Sigma Chemical Company. […] The nicotinamidase PNC1 was prepared as described by Denu and colleagues (Smith et al. (2009) Anal Biochem 394, 101-109). To determine the interaction of STACs with SIRT1 two kinetic methods were employed. […] (2007) Nature 450, 712-716). The other, used with peptides of general structure […], used a continuous, enzyme-coupled method reported previously (Smith et al. (2009) Anal Biochem 394, 101-109), in which the SRT1 product nicotinamide is first converted into nicotinic acid and ammonia by the action of PNC1, and the ammonia then used by GDH to convert α-ketoglutarate into glutamate. This reaction occurs with oxidation of NADH to NAD^+ which is accompanied by a change in absorbance at 340 nm (Δε340=-6,200 M^-1 cm^-1). The kinetic experiments used to characterize activators were run on a Perkin Elmer Lambda 25 spectrophotometer equipped with a water-jacketed, eight-cell changer maintained at 25° C. In a typical kinetic experiment, all components of the reaction solution except SIRT1 were added to a 1 mL cuvette and allowed to reach thermal equilibrium. Final concentrations of the coupling system components were: 1 μM PNC1, 0.23 mM NADH, 3.4 mM α-ketoglutarate, and 20 U/mL bovine GDH. This solution also contained peptide substrate, NAD^.0., and activator, at concentrations indicated in the text. The final DMSO concentration was kept constant at 1%, and the buffer used in these experiments was 50 mM HEPES, 150 mM NaCl, pH 7.5. While the system was reaching thermal equilibrium, the absorbance was monitored to provide an accurate estimate of the background rate, which was subtracted from the reaction rate after the addition of SIRT1. Activator titrations were plotted as relative velocity (i.e., the ratio of vx, velocity in the presence of activator X, to vo, velocity in the absence of activator) vs. [X]o, initial concentration of activator, and fit by nonlinear least-squares to the mechanism-independent expression for enzyme activation of […] the maximum relative velocity (i.e., vx/vo at infinite [X]o) and EC50 is the activator concentration at which vx/vo=(RVmax-1)/2. EC50 is a function of the kinetic mechanisms of both catalysis and activation, and the concentrations of substrates.

[3] = [SRT]o = 5 μM, [peptide]o ≦ Km, [NAD+] = 70 μM
[4] = full titration, 3-5 independent experiments

| Structure (SMILES) | Kd [1] [µM] | Relative Velocity, X=Ala-NH2 [2, 3] | Relative Velocity, X=NH2 [2, 3] | EC1.5 for activation of deacetylation of Ac-Arg-His-Lys-Lys^Ac-X, X=TrpNH2 [2, 4] [µM] | further results |
| --- | --- | --- | --- | --- | --- |
| CN(C)CCCNc1cc(-c2nc3c(NC(=O)c4ccc(CN5CCNCC5)cc4)cccc3[nH]2)ccn1 [Compound 14, N-(2-(2-(3-(dimethylamino)propylamino)pyridin-4-yl)-1H-benzo[d]imidazol-4-yl)-4-(piperazin-1-ylmethyl)benzamide trihydrochloride] | 0.27 |  |  |  |  |
| CCCCc1nc(NC2CCNCC2)cc(C(=O)Nc2ccccc2-c2nc3cc(COC4CCNCC4)cnc3s2)n1 [Compound 10, 2-butyl-6-(piperidin-4-ylamino)-N-(2-(6-((piperidin-4-yloxy)methyl)thiazolo[5,4-b]pyridin-2-yl)phenyl)pyrimidine-4-carboxamide] |  | 0.3 | 0.6 | 1.9 | Relative Velocity, X=AMC ([2]; [SRT]o = 5 μM, [peptide]o ≦ Km, [NAD+] = 70 μM, Ac-Arg-His-Lys-Lys^Ac-AMC, listed as 22): activates; Relative Velocity, X=NH2 ([2]; [SRT]o = 5 μM, [peptide]o ≦ Km, [NAD+] = 70 μM, listed as 22): inhibits; Relative Velocity, X=Trp-NH2 ([2]; [SRT]o = 5 μM, [peptide]o ≦ Km, [NAD+] = 70 μM, Ac-Arg-His-Lys-Lys^Ac-Trp-NH2, listed as 22): activates; EC1.5 for activation of deacetylation of Ac-Arg-His-Lys-Lys^Ac-X, X=AMC [2, 4]: 3.1 µM |
| COc1cc(C(=O)Nc2ccccc2-c2cn3c(CN4CCNCC4)csc3n2)cc(OC)c1OC [SRT1460] |  | 1.1 | 0.8 | 5.0 | EC1.5 for activation of deacetylation of Ac-Arg-His-Lys-Lys^Ac-X, X=PheNH2 [2, 4]: 26.0 µM; RVmax for activation of deacetylation of Ac-Arg-His-Lys-Lys^Ac-X, X=TrpNH2 [2, 4]: 4.1±0.1; EC50 ([2]; full titration, 3-5 independent experiments, read-out: EC50 for activation of deacetylation of Ac-Arg-His-Lys-Lys^Ac-X, X=TrpNH2): 27000 ± 8000 nM |
| CN(C)Cc1cnc2sc(-c3ccccc3NC(=O)c3cnc4ccccc4n3)nc2c1 [Compound 2, N-(2-(6-((dimethylamino)methyl)thiazolo[5,4-b]pyridin-2-yl)phenyl)quinoxaline-2-carboxamide] | 0.27 |  |  |  |  |
